From BigSolDB 2.1

Nc1c(Cl)cc([N+](=O)[O-])cc1Cl
solubility (mole fraction)
Conditions	278.15 K	283.15 K	288.15 K	293.15 K	298.15 K	303.15 K	308.15 K	313.15 K	318.15 K	323.15 K
in 1,4-dioxane	–	–	–	0.0251	0.0292	0.0337	0.0389	0.0447	0.0513	0.0598
in NMP	0.135	0.141	0.149	0.159	0.169	0.179	0.189	0.199	0.211	0.227
in acetonitrile	0.00152	0.00176	0.00211	0.00249	0.00293	0.00352	0.00411	0.00487	0.00577	0.00665
in cyclohexane	0.000119	0.000147	0.000185	0.000236	0.000301	0.000389	0.000501	0.000617	0.00074	0.000906
in ethanol	0.000879	0.00102	0.00123	0.00149	0.00183	0.00222	0.00268	0.00325	0.00384	0.00455
in ethyl acetate	0.0085	0.00938	0.0109	0.0126	0.0153	0.0177	0.0208	0.025	0.0291	0.0336
in ethylene glycol	0.000815	0.000969	0.00117	0.00139	0.00167	0.00195	0.00236	0.00281	0.00338	0.00412
in isopropanol	–	0.00093	0.00111	0.00133	0.00162	0.00195	0.00234	0.00281	0.00338	0.00413
in methanol	0.000705	0.000814	0.000987	0.00121	0.0015	0.00182	0.00224	0.00267	0.00314	0.00377
in n-butanol	0.00121	0.00148	0.00172	0.00216	0.0026	0.00308	0.00378	0.00446	0.00543	0.00638
in n-propanol	0.00102	0.00123	0.00146	0.00176	0.00216	0.00258	0.00307	0.00364	0.00441	0.00546
in water	1.88e-06	2.53e-06	3.43e-06	4.76e-06	6.43e-06	8.31e-06	1.06e-05	1.37e-05	1.72e-05	2.18e-05
